The source made the active and inactive calls. The rule behind the calls is not given here.
How the values were obtained:
Format in all cases: functional
[1] = Cytotoxicity against human TK10 cells after 48 hrs by SRB assay; conditions: TK-10, 48 h
[2] = Cytotoxicity against human UACC62 cells after 48 hrs by SRB assay; conditions: UACC-62, 48 h
[3] = tested on: SK-OV-3; assay: Cytotoxicity against human SKOV3 cells assessed as growth inhibition at 10 uM after 48 hrs by SRB assay
[4] = tested on: SK-MEL-2; assay: Cytotoxicity against human SK-MEL-2 cells after 48 hrs by SRB assay; conditions: SK-MEL-2, 48 h
[5] = Cytotoxicity against human Hs578T cells after 48 hrs by SRB assay; conditions: Hs-578T
[6] = tested on: U-251; assay: Cytotoxicity against human U251 cells after 48 hrs by SRB assay; conditions: U-251, 48 h
[7] = Cytotoxicity against human UACC257 cells after 48 hrs by SRB assay; conditions: UACC-257, 48 h
[8] = tested on: Hs-578T; assay: Cytotoxicity against human Hs578T cells assessed as growth inhibition at 10 uM after 48 hrs by SRB assay
[9] = Cytotoxicity against human SF539 cells after 48 hrs by SRB assay; conditions: SF-539, 48 h
[10] = tested on: Malme-3M; assay: Cytotoxicity against human MALME-3M cells after 48 hrs by SRB assay
[11] = tested on: SK-MEL-28; assay: Cytotoxicity against human SK-MEL-28 cells after 48 hrs by SRB assay; conditions: SK-MEL-28, 48 h
[12] = tested on: SR; assay: Cytotoxicity against human SR cells after 48 hrs by SRB assay; conditions: for CC50: read-out: LC50 (the source's name)
[13] = Cytotoxicity against human BT549 cells after 48 hrs by SRB assay; conditions: BT-549, 48 h; for CC50: read-out: LC50 (the source's name)
[14] = Cytotoxicity against human SKOV3 cells after 48 hrs by SRB assay; conditions: SK-OV-3, 48 h; for CC50: read-out: LC50 (the source's name)
[15] = tested on: NCI-H226; assay: Cytotoxicity against human NCI-H226 cells after 48 hrs by SRB assay; conditions: NCI-H226, 48 h
[16] = tested on: IGROV-1; assay: Cytotoxicity against human IGROV1 cells assessed as growth inhibition at 10 uM after 48 hrs by SRB assay
[17] = tested on: SK-MEL-2; assay: Cytotoxicity against human SK-MEL-2 cells assessed as growth inhibition at 10 uM after 48 hrs by SRB assay; conditions: SK-MEL-2, 48 h, read-out: GI
[18] = tested on: RXF 393; assay: Cytotoxicity against human RXF393 cells assessed as growth inhibition at 10 uM after 48 hrs by SRB assay
[19] = tested on: SF-295; assay: Cytotoxicity against human SF295 cells assessed as growth inhibition at 10 uM after 48 hrs by SRB assay
[20] = tested on: HCC 2998; assay: Cytotoxicity against human HCC2998 cells assessed as growth inhibition at 10 uM after 48 hrs by SRB assay
[21] = tested on: HL-60(TB); assay: Cytotoxicity against human HL-60(TB) cells assessed as growth inhibition at 10 uM after 48 hrs by SRB assay
[22] = tested on: HOP-92; assay: Cytotoxicity against human HOP92 cells assessed as growth inhibition at 10 uM after 48 hrs by SRB assay

SMILES: C=C1CC[C@@H]2[C@](C)(COC(C)=O)[C@H](OC(C)=O)CC[C@@]2(C)[C@@H]1C/C=C1/C(=O)OC[C@H]1OC(C)=O
- GI50 [1]: 3.81 µM
- LC50 [1]: 38.2 µM
- TGI [1]: 13.3 µM
- GI50 [2]: 3.37 µM
- LC50 [2]: 40.7 µM
- TGI [2]: 13.5 µM
- growth inhibition (GI) [3]: inactive
- GI50 [4]: 10.7 µM
- LC50 (concentration causing 50% net cell kill) [4]: 64.3 µM
- TGI [4]: 26.3 µM
- GI50 [5]: 12.3 µM
- LC50 (concentration killing 50% of cells) [5]: > 100 µM
- TGI [5]: 55.4 µM
- GI50 [6]: 6.09 µM
- LC50 (concentration giving 50% net cell kill) [6]: 48.6 µM
- TGI [6]: 19.3 µM
- GI50 [7]: 6.2 µM
- LC50 (concentration killing 50% of cells) [7]: 53.2 µM
- TGI [7]: 19.9 µM
- growth inhibition (GI) [8]: inactive
- GI50 [9]: 1.7 µM
- LC50 [9]: 6.08 µM
- TGI [9]: 3.22 µM
- GI50 [10]: 2.97 µM
- LC50 [10]: 29.9 µM
- TGI [10]: 7.95 µM
- GI50 [11]: 1.75 µM
- LC50 (lethal concentration 50%) [11]: 6.51 µM
- TGI [11]: 3.38 µM
- GI50 [12]: 2.59 µM
- TGI [12]: 10.1 µM
- CC50 [12]: > 100 µM
- GI50 [13]: 2.29 µM
- TGI [13]: 5.63 µM
- CC50 [13]: 18.8 µM
- GI50 [14]: 19.1 µM
- TGI [14]: 36.3 µM
- CC50 [14]: 68.8 µM
- GI50 [15]: 2.14 µM
- LC50 [15]: 19.9 µM
- TGI [15]: 5.42 µM
- growth inhibition (GI) [16]: inactive

SMILES: C=C1CC[C@@H]2[C@](C)(COC(C)=O)[C@H](OC(C)=O)CC[C@@]2(C)[C@@H]1CC(NC1CCCC1)C1=CCOC1=O (stereo partly specified)
- inhibition of growth at 10 µM [17]: 14.9%

SMILES: C=C1CC[C@@H]2[C@](C)(COC(C)=O)[C@H](OC(C)=O)CC[C@@]2(C)[C@@H]1CC(NCCCC)C1=CCOC1=O (mixture of isomers)
- growth inhibition (GI) [18]: inactive

SMILES: C=C1CC[C@@H]2[C@](C)(COC(C)=O)[C@H](OC(C)=O)CC[C@@]2(C)[C@@H]1CC(NCc1cccc(Cl)c1)C1=CCOC1=O (mixture of isomers)
- inhibition of growth at 10 µM [17]: 32%

SMILES: C=C1CC[C@@H]2[C@](C)(COC(C)=O)[C@H](OC(C)=O)CC[C@@]2(C)[C@@H]1CC(NCc1ccc(F)cc1)C1=CCOC1=O (mixture of isomers)
- inhibition of growth at 10 µM [17]: 26.8%

SMILES: C=C1CC[C@@H]2[C@](C)(COC(C)=O)[C@H](OC(C)=O)CC[C@@]2(C)[C@@H]1CC(Nc1ccc(S(=O)(=O)NC(C)=O)cc1)C1=CCOC1=O (mixture of isomers)
- GI50 [1]: 8.02 µM
- LC50 [1]: 35.6 µM
- TGI [1]: 16.9 µM
- GI50 [2]: 2.59 µM
- LC50 [2]: 32 µM
- TGI [2]: 10.8 µM
- GI50 [4]: 8.68 µM
- LC50 (concentration causing 50% net cell kill) [4]: 42.1 µM
- TGI [4]: 19.1 µM
- GI50 [5]: 8.45 µM
- LC50 (concentration killing 50% of cells) [5]: > 75 µM
- TGI [5]: 38.8 µM
- GI50 [6]: 3.49 µM
- LC50 (concentration giving 50% net cell kill) [6]: 30.8 µM
- TGI [6]: 12 µM
- GI50 [7]: 6.83 µM
- LC50 (concentration killing 50% of cells) [7]: 35.6 µM
- TGI [7]: 16 µM
- GI50 [9]: 2.39 µM
- LC50 [9]: 26.9 µM
- TGI [9]: 7.77 µM
- GI50 [11]: 3.69 µM
- LC50 (lethal concentration 50%) [11]: 34.2 µM
- TGI [11]: 13.2 µM
- GI50 [12]: 0.99 µM
- TGI [12]: 18.1 µM
- CC50 [12]: > 75 µM
- GI50 [13]: 2.32 µM
- TGI [13]: 7.93 µM
- CC50 [13]: 25.1 µM
- GI50 [14]: 9.31 µM
- TGI [14]: 18.7 µM
- CC50 [14]: 37.4 µM
- GI50 [15]: 1.92 µM
- LC50 [15]: > 75 µM
- TGI [15]: 4.62 µM

SMILES: C=C1CC[C@@H]2[C@](C)(COC(C)=O)[C@H](OC(C)=O)CC[C@@]2(C)[C@@H]1CC(Sc1ccccc1)C1=CCOC1=O (mixture of isomers)
- GI50 [1]: 2.83 µM
- LC50 [1]: 13.4 µM
- TGI [1]: 5.54 µM
- GI50 [2]: 1.3 µM
- LC50 [2]: 8.07 µM
- TGI [2]: 3.24 µM
- GI50 [4]: 2.25 µM
- LC50 (concentration causing 50% net cell kill) [4]: 9.36 µM
- TGI [4]: 4.59 µM
- GI50 [5]: 4.89 µM
- LC50 (concentration killing 50% of cells) [5]: > 100 µM
- TGI [5]: 63.3 µM
- GI50 [6]: 1.56 µM
- LC50 (concentration giving 50% net cell kill) [6]: 5.62 µM
- TGI [6]: 2.96 µM
- GI50 [7]: 1.91 µM
- LC50 (concentration killing 50% of cells) [7]: 7.2 µM
- TGI [7]: 3.71 µM
- GI50 [10]: 1.74 µM
- LC50 [10]: 7.59 µM
- TGI [10]: 3.63 µM
- GI50 [11]: 1.62 µM
- LC50 (lethal concentration 50%) [11]: 6.68 µM
- TGI [11]: 3.29 µM
- GI50 [12]: 0.55 µM
- TGI [12]: 3.66 µM
- CC50 [12]: > 100 µM
- GI50 [13]: 1.59 µM
- TGI [13]: 3.99 µM
- CC50 [13]: > 100 µM
- GI50 [14]: 4.44 µM
- TGI [14]: 16.8 µM
- CC50 [14]: > 100 µM
- GI50 [15]: 2.3 µM
- LC50 [15]: 39.4 µM
- TGI [15]: 5.98 µM

SMILES: C=C1CC[C@@H]2[C@](C)(CO)[C@H](O)CC[C@@]2(C)[C@@H]1C/C=C1/C(=O)OC[C@H]1O [ANDROGRAPHOLIDE]
- growth inhibition (GI) [3]: inactive
- growth inhibition (GI) [18]: inactive
- growth inhibition (GI) [19]: inactive
- growth inhibition (GI) [20]: inactive
- growth inhibition (GI) [8]: inactive
- growth inhibition (GI) [21]: inactive
- growth inhibition (GI) [22]: inactive
- growth inhibition (GI) [16]: inactive
